Source: USRE47221E1, “Tricyclic compounds” (AbbVie Inc., priority 2009, dated 2019)

System: not given
Assay: not given

melting point [°C] | SMILES
225 | C[C@@H]1C[C@H](NS(=O)(=O)CCC(F)(F)F)C[C@@H]1c1cnc2cnc3[nH]ccc3n12 [Example #7, N-((1S,3S,4R)-3-(3H-imidazo[1,2-a]pyrrolo[2,3-e]pyrazin-8-yl)-4-methylcyclopentyl)-3,3,3-trifluoropropane-1-sulfonamide]

Target: T1, Jak3 (Homo sapiens, UniProt P52333)
T1 construct: Jak3 enzyme (aa 811-1103); expressed in SF9 cells as a GST fusion; GST; made in house; host or cells: SF9 insect cells
T1 sequence (P52333 811-1103): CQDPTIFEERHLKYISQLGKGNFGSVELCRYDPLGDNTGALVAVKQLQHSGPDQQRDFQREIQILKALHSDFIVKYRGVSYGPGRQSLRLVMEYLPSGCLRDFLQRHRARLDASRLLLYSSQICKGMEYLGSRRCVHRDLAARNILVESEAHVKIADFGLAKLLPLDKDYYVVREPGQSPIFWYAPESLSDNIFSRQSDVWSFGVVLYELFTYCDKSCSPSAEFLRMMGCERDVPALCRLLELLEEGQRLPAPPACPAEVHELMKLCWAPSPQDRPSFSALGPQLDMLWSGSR
Assay: Jak3 enzyme data for selected compounds
Assay type: biochemical

SMILES | IC50 [nM]
CCC1CC(CNS(=O)(=O)C2CC2)CC1c1nnc2cnc3[nH]ccc3n12 (single isomer, unassigned) [AA.1.64, N-((3-ethyl-4-(6H-pyrrolo[2,3-e][1,2,4]triazolo[4,3-a]pyrazin-1-yl)cyclopentyl)methyl)cyclopropane sulfonamide] | > 1000
CC[C@@H]1C[C@H](OCc2ccc(OC)cc2)C[C@H]1c1nnc2cnc3[nH]ccc3n12 (single isomer, unassigned) [AA.1.32, 1-(2-ethyl-4-(4-methoxybenzyloxy)cyclopentyl)-6H-pyrrolo[2,3-e][1,2,4]triazolo [4,3-a]pyrazine] | 100 to 1000
CC[C@@H]1C[C@H](NS(=O)(=O)C(C)(C)C)C[C@@H]1c1nnc2cnc3[nH]ccc3n12 [D.1.67] | 100 to 1000
N#Cc1cnc(N2CCC[C@@H](c3cnc4cnc5[nH]ccc5n34)C2)s1 (single isomer, unassigned) [AA.1.22, 2-(3-(3H-imidazo[1,2-a]pyrrolo[2,3,-e]pyrazin-8-yl)piperidin-1-yl)thiazole-5-carbonitrile] | < 100
CCCCC1(S(=O)(=O)N[C@H]2C[C@@H](CC)[C@@H](c3nnc4cnc5[nH]ccc5n34)C2)CC1 [D.1.84] | 100 to 1000
CC[C@H]1C[C@@H](Oc2cnc(C#N)cn2)C[C@@H]1c1nnc2cnc3[nH]ccc3n12 (single isomer, unassigned) [AA.1.97, 5-(3-ethyl-4-(6H-pyrrolo[2,3-e][1,2,4]triazolo[4,3-a]pyrazin-1-yl)cyclopentyloxy)pyrazine-2-carbonitrile] | > 1000
CC[C@@H]1C[C@H](NS(=O)(=O)c2ccc(F)c(Cl)c2)C[C@@H]1c1cnc2cnc3[nH]ccc3n12 (single isomer, unassigned) [AA.1.92, 3-chloro-N-(3-ethyl-4-(3H-imidazo[1,2-a]pyrrolo[2,3-e]pyrazin-8-yl)cyclopentyl)-4-fluorobenzenesulfonamide] | < 100
CC[C@@H]1C[C@@H](Oc2ccc(C#N)c(F)c2)C[C@@H]1c1nnc2cnc3[nH]ccc3n12 (single isomer, unassigned) [AA.1.103, 4-(3-ethyl-4-(6H-pyrrolo[2,3-e][1,2,4]triazolo[4,3-a]pyrazin-1-yl)cyclopentyloxy)-2-fluorobenzonitrile] | < 100
CC[C@@H]1C[C@@H](Oc2ccc(C#N)cc2)C[C@@H]1c1nnc2cnc3[nH]ccc3n12 [Example #4, 4-((1R,3R,4S)-3-ethyl-4-(6H-pyrrolo[2,3-e][1,2,4]triazolo[4,3-a]pyrazin-1-yl)cyclopentyloxy)benzonitrile] | < 100
C[C@@H]1CCN(c2ncc(C#N)s2)C[C@@H]1c1ncc2cnc3[nH]ccc3n12 (single isomer, unassigned) [AA.1.11, 2-(-3-(6H-imidazo[1,5-a]pyrrolo[2,3-e]pyrazin-1-yl)-4-methylpiperidin-1-yl)thiazole-5-carbonitrile] | < 100

Second part, the molecule after the results:

IC50 [nM] | SMILES
100 to 1000 | O=C(N1CCC(F)(F)CC1)N1CCC[C@@H](c2ncc3cnc4[nH]ccc4n23)C1 [Example #6, (R)-(3-(6H-imidazo[1,5-a]pyrrolo[2,3-e]pyrazin-1-yl)piperidin-1-yl)(4,4-difluoropiperidin-1-yl)methanone]
100 to 1000 | CC[C@@H]1C[C@H](NS(=O)(=O)C2CC2)C[C@@H]1c1nnc2cnc3[nH]cc(C)c3n12 [LL.1.1]
< 100 | C[C@@H]1CCN(C(=O)N2CCC[C@@H]2C(F)(F)F)C[C@@H]1c1ncc2cnc3[nH]ccc3n12 [J.2.15]
< 100 | C[C@H]1CCN(C(=O)N2CC[C@@H](C)[C@@H](c3ncc4cnc5[nH]ccc5n34)C2)C1 (racemic) [J.2.10]
< 100 | C[C@@H]1C[C@H](NS(=O)(=O)N2CC(F)(F)C2)C[C@@H]1c1cnc2cnc3[nH]ccc3n12 (single isomer, unassigned) [Example #25]
> 1000 | CC[C@@H]1C[C@H](N(CO)S(=O)(=O)C2CC2)C[C@@H]1c1nnc2cnc3[nH]cc(C)c3n12 [LL.1.2]
< 100 | C[C@H]1CCN(C(=O)N2CC(C#N)C2)C[C@H]1c1ncc2cnc3[nH]ccc3n12 (racemic) [J.1.1]
100 to 1000 | C[C@@H]1CCN(C(=NC#N)N2CCCC2)C[C@@H]1c1ncc2cnc3[nH]ccc3n12 [Example #5, N-(((3R,4R)-3-(6H-imidazo[1,5-a]pyrrolo[2,3-e]pyrazin-1-yl)-4-methylpiperidin-1-yl)(pyrrolidin-1-yl)methylene)cyanamide]
100 to 1000 | CC[C@@H]1C[C@H](OCc2ccc(OC)cc2)C[C@H]1c1n[nH]c2cnc3[nH]ccc3c12 (single isomer, unassigned) [compound 31]
> 1000 | CC[C@@H]1C[C@H](OC2CCOCC2)C[C@@H]1c1nnc2cnc3[nH]ccc3n12 [Example #22, 1-((1S,2R,4S)-2-ethyl-4-(tetrahydro-2H-pyran-4-yloxy)cyclopentyl)-6H-pyrrolo[2,3-e][1,2,4]triazolo[4,3-a]pyrazine]
